# Entries after “also recorded” stand apart in the source; their conditions may differ. Counter-ions that a name gives are not always drawn.
# Legend:
# [1] = Saturated aqueous solubility determination (HPLC); assay type: physicochemical; settings: for Ratio (relative to CM): solubility relative to creatine monohydrate; for solubility at 1.5 h: thermodynamic from solid, deionized water, 25° C.
# Experimental: After 1.5 hour, the saturated solutions were vortexed and 2-ml aliquots removed and centrifuged in microcentrifuge tubes at 11,000 rpm for 5 min. Concentrations were analyzed by HPLC by diluting 500 μL of supernatant with mobile phase (500 μL). The mean±standard deviation of the saturation solubility for each antiviral therapeutic compound is calculated from the corresponding standard curves.
# [2] = tested on: hCMEC/d3 (human brain endothelial cells); test: Bradykinin-induced permeability in microfluidic BBB culture model; assay type: cell-based; settings: 1 mM CEE pretreatment 1-hour
# Experimental: In an effort to determine the impact/effectiveness of creatinine pronutrient formulations made in accordance with the present disclosure, studies examined bradykinin-induced effects on endothelial permeability using a microfluidic blood-brain barrier (BBB) culture model consisting of hCMEC/d3 (human brain endothelial cells) grown on Mimeta microfluidic plates. More specifically, permeability studies were performed using the microfluidic BBB culture model under control conditions and following exposure to a low dose (10 nM) or high dose (10 μM) of bradykinin in either the presence or absence of creatine ethyl ester hydrochloride (CEE) as the creatinine pronutrient.
# hCMEC/d3 cells in Mimeta microfluidic plate were pretreated for 1 hour with media or media+1 mM CEE. Thereafter, the cells were treated with a low concentration (10 nM) or high concentration (10 μM) of bradykinin. The permeability of a fluorescent dye (IRdye 800) was assessed after 30 minutes.
# COX1 = COX1 (Homo sapiens, UniProt P23219); test: COX activity, COX1; assay type: biochemical
# Chain of COX1 (P23219 24-599): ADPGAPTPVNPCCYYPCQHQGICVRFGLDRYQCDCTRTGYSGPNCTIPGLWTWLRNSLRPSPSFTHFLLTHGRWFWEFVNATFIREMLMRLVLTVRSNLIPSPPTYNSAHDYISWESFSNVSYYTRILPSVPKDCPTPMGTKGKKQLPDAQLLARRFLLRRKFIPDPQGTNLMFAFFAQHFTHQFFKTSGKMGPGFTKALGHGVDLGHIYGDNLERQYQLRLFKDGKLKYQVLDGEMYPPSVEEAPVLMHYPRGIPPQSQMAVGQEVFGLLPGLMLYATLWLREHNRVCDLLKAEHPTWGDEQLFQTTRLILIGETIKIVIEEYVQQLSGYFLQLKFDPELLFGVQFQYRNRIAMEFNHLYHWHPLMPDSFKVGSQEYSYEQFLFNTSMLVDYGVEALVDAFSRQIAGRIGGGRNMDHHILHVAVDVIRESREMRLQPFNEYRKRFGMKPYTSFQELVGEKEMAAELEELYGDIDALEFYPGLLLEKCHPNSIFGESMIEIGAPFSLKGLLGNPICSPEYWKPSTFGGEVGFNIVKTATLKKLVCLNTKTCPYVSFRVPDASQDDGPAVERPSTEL
# From the text: (§1) The effects of the creatinine pronutrient on PGE2 release was not due to the inhibition of prostaglandin synthesis through cyclooxygenase (COX) as production of prostaglandins by either COX1 or COX2 was unaffected by CEE.
# COX2 = molecular target: T1, COX2 (Homo sapiens, UniProt P35354); test: COX activity, COX2; assay type: biochemical
# T1 sequence (P35354 18-604): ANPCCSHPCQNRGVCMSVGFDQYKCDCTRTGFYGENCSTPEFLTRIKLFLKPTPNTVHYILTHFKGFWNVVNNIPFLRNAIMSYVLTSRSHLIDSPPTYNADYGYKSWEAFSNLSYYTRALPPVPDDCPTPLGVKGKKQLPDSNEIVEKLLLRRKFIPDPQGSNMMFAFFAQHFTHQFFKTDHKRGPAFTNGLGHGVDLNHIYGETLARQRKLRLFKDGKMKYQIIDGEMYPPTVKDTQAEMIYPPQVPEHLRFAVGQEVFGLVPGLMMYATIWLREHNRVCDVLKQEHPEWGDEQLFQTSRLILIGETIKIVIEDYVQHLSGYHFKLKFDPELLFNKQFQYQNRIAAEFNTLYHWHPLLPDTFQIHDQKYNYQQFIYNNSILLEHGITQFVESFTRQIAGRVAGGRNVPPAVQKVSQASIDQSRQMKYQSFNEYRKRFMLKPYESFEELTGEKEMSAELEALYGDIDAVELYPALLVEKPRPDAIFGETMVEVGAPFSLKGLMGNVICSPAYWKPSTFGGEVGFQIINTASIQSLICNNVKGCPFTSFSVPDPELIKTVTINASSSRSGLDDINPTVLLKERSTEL
# From the text: as §1
# hBMEC/d3 cells = test: Bradykinin-induced prostaglandin E2 release (PGE2 ELISA); assay type: cell-based; settings: for inhibition of prostaglandin (PGE2) release: 1.0 mM, 1-hour preincubation, 10 μM bradykinin, at 6 and 24 hours, compared with 10 μM HOE 140
# Experimental: In an effort to determine the impact/effectiveness of creatinine pronutrient formulations made in accordance with the present disclosure on decreasing prostaglandin release over a 24-hour period due to bradykinin exposure, hBMEC/d3 cells were pre-treated with a creatinine pronutrient of the present disclosure and then exposed to 10 μM bradykinin. More specifically, hBMEC/d3 cells were grown on T25 flasks to confluency. Media was removed and exchanged with endothelial cell media containing 0.1% BSA and (1) 1.0 mM CEE, (2) 1.0 mM creatine t-butyl ester hydrochloride (CtB), or (3) 10 μM HOE 140 (a known BR2 receptor antagonist). After a 1-hour incubation, bradykinin (10 μM) was added and samples of media removed and assayed for prostaglandin E2 (PGE2) at 3, 6 and 24 hours. The amount of PGE 2 secreted into the media by the cells was determined using a PGE2 ELISA and normalized to cell lysate protein content.
# [3] = Rat PK study, plasma levels after creatinine pronutrient dosing; assay type: in vivo, sprague-dawley male rats
# Experimental: A rat PK study was performed to determine resulting plasma creatinine levels following creatinine pronutrient dosing. […] Levels of creatine, creatinine pronutrient, and creatinine in the plasma were measured over time. In this study, the specific creatinine pronutrient used was creatine ethyl ester hydrochloride. Blood samples were collected over a 4-hour period via femoral artery catheter. Muscle and brain tissue were collected at the end of the study. Liquid chromatography-mass spectrometry (LCMS) was used for analysis of samples. The area under the plasma concentration curve following oral dosing was compared to that obtained following IV administration. The creatinine pronutrient formulation data in Table 4 was generated from the creatinine data gathered in Example 4 using allometric dosing to determine the human dose equivalent for the labeled creatinine pronutrient (for a 70 kg human). In order to assess the relative bioavailability of the formulations (and to correct for the slightly different doses administered with various forms due to the different molecular weights), the AUC plasma uptake values observed for creatinine and the creatinine pronutrient formulation were entered into the following equation to produce a ratio: […]
# [4] = Human single oral dose pharmacokinetics of creatinine (Ostojic et al. 2019); assay type: in vivo; settings: plasma, oral 3 grams creatinine given with 3 grams creatine nitrate, computed from literature data, read-out: AUC(0-120m) (converted)
# From the text: The creatinine data in Table 4 was generated from the data provided in Ostojic et al., Food Sci Nutr. 2019. […] In order to assess the relative bioavailability of the formulations (and to correct for the slightly different doses administered with various forms due to the different molecular weights), the AUC plasma uptake values observed for creatinine and the creatinine pronutrient formulation were entered into the following equation to produce a ratio: […]
# [5] = human, oral 3 grams creatinine given with 3 grams creatine nitrate; cited from earlier work
# [6] = cited from earlier work
# [7] = tested on: human colon epithelial (Caco-2); test: Creatinine uptake in Caco-2 cells; assay type: cell-based; settings: Caco-2, 1 mM, 3-hour period; hydrochloride
# [8] = tested on: human brain endothelial cells (HCMEC/d3); test: Creatinine uptake in HCMEC/d3 cells; assay type: cell-based; settings: HCMEC/d3, 1 mM, 3-hour period
# Experimental: In an effort to determine the impact/effectiveness of a formulation made in accordance with the present disclosure on increasing creatinine delivery, different cell types were exposed to several of the formulations in Example 1. More specifically, cellular uptake studies were performed for formulations including CEE and CtB from Example 1. […] In other words, it remains unknown where there is a transporter involved in the accumulation of creatinine. Without being bound by any particular theory, if a transporter is involved for accumulation of creatinine, it may be the organic cation transporter 2 (OCT2) found in kidney tubule epithelial cells. The various cell lines discussed above were first exposed to 1 mM of creatinine (CRN), CEE, and CtB at 37° C. for a 3-hour incubation period at a pH 7.4. After incubation, the assay buffer was collected. The cells were then washed rapidly three times with ice-cold phosphate-buffered saline solution. […] More specifically, the creatinine content in cell lysates was determined using QuantichromTM Creatinine Assay Kit (DICT 500) from Bioassay Systems (Hayward, CA). The assay quantitatively measures creatinine without any pretreatment through an optimized Jaffe method. […] The intensity of the red, measured at 510 nm, is directly proportional to the concentration of creatinine in the sample. […]
# [9] = tested on: hCMEC/d3 microfluidic culture model; test: Permeability of microfluidic BBB model treated with cancer patient plasma; assay type: cell-based, human; settings: for permeability coefficient: 1 mM CtB
# [10] = rat, after 10 or 70 mg/kg oral or 10 mg/kg IV creatinine pronutrient
smiles,measurement,setting,value
"CCOC(=O)CN(C)C(=N)N [CEE, creatine ethyl ester hydrochloride]",Ratio (relative to CM),[1],>9
same,solubility at 1.5 h,[1],205 mg/mL
same,permeability coefficient of IRdye 800,[2]; then 10 nM bradykinin (1.05×10^−8 without CEE),0.00343 ×10⁻⁶ cm/s
same,permeability coefficient of IRdye 800,[2]; then 10 μM bradykinin (2.90×10^−8 without CEE),0.0142 ×10⁻⁶ cm/s
same,production of prostaglandins by COX1,COX1,unaffected
same,production of prostaglandins by COX2,COX2,unaffected
same,PGE release in response to bradykinin,hBMEC/d3 cells,prevents PGE release
same,inhibition of prostaglandin (PGE2) release,hBMEC/d3 cells,as effective at inhibiting prostaglandin release as the known BR2 receptor antagonist HOE 140
same,creatinine delivered to the plasma as compared to creatinine,[3]; high and low doses,twice as much
same,creatine in plasma samples,[3]; [10],no detectable amount
same,creatinine pronutrient in plasma samples,[3]; [10],Small but measurable amounts
same,creatinine in plasma samples,"[3]; rat, after creatinine pronutrient dosing, especially at the high dose",Substantial levels
"CN(CC(=O)OC1CCCCC1)C(=N)N [Creatine Cyclohexyl Ester Tosylate, creatine cyclohexyl ester]",Ratio (relative to CM),[1],<1.0
same,solubility at 1.5 h,[1],15 to 20 mg/mL
"CCOC(=O)CNC(=O)CN(C)C(=N)N [Creatine Glycinamide Ethyl Ester HCl, creatine glycinamide ethyl ester]",Ratio (relative to CM),[1],>29
same,solubility at 1.5 h,[1],> 600 mg/mL
"CC(C)CCOC(=O)CN(C)C(=N)N [Creatine Isopentyl Ester HCl, creatine isopentyl ester hydrochloride]",Ratio (relative to CM),[1],>29
same,solubility at 1.5 h,[1],> 600 mg/mL
"CN1CC(=O)NC1=N [Creatinine, creatinine]",AUC,[4],4600 ng·h/mL
same,Cmax (plasma creatinine),[5],15300 ng/mL
same,Cmin (plasma creatinine),[5],11300 ng/mL
same,Tmax,[5],1 h
same,solubility,[6],23 mg/mL
"CN(CC(=O)OC(C)(C)C)C(=N)N.Cl [CtB, creatine tert-butyl ester hydrochloride]",Ratio (relative to CM),[1],≥18
same,solubility at 1.5 h,[1],389 mg/mL
same,creatinine accumulation compared with 1 mM creatinine,[7],greater; also recorded: almost double
same,creatinine accumulation compared with 1 mM creatinine,[8],greater
same,permeability coefficient,"[9]; breast cancer patient CF80 6 month plasma, 24-hour treatment (2.78×10^−8 without CtB)",0.00963 ×10⁻⁶ cm/s
same,permeability coefficient,"[9]; breast cancer patient CF80 baseline plasma, 24-hour treatment (1.06×10^−8 without CtB)",0.00297 ×10⁻⁶ cm/s
same,permeability increases produced by plasma samples from cancer patients,[9]; addition of 1 mM,attenuated
same,inhibition of prostaglandin (PGE2) release,hBMEC/d3 cells,as effective at inhibiting prostaglandin release as the known BR2 receptor antagonist HOE 140
"CCOC(=O)CCNC(=N)N [Ethyl (α-guanido-methyl) ethonoate, ethyl (α-guanido-methyl) ethanoate]",Ratio (relative to CM),[1],>8
same,solubility at 1.5 h,[1],178 ± 7.2 mg/mL
